These results are taken from PMC5218480 (PLoS ONE, 2017).

The subject of the assay is MV-4-11 cells. The experiment in a line: Gene expression microarray analysis (Affymetrix PrimeView) and GSEA. In kind it is cell-based, human. On the set-up: RFU PODN (11730768_x_at) / Fold change /veh PODN (11730768_x_at) / RFU LINC00158 (11744669_a_at) / Fold change /veh LINC00158 (11744669_a_at) / RFU DUSP10 (11751237_a_at) / Fold change /veh DUSP10 (11751237_a_at) / RFU ID3 (11757404_x_at) / Fold change /veh ID3 (11757404_x_at) / RFU PLEKHG5 (11737974_s_at) / Fold change /veh PLEKHG5 (11737974_s_at) / RFU LRRC4B (11730491_at) / Fold change /veh LRRC4B (11730491_at) / RFU GIMAP4 (11747438_a_at) / Fold change /veh GIMAP4 (11747438_a_at) / RFU KRT8 (11758183_x_at) / Fold change /veh KRT8 (11758183_x_at) / RFU CNN1 (11734310_a_at) / Fold change /veh CNN1 (11734310_a_at) / RFU VPS37D (11726825_at) / Fold change /veh VPS37D (11726825_at) / RFU C10orf10 (11716522_x_at) / Fold change /veh C10orf10 (11716522_x_at) / RFU KIR2DL2 /// KIR2DL4 /// KIR2DL5A /// KIR2DL5B /// KIR2DS1 /// KIR2DS2 /// KIR2DS3 /// KIR2DS4 /// KIR3DL3 /// KIR3DL3 /// KIR3DS1 (11738374_at) / Fold change /veh KIR2DL2 /// KIR2DL4 /// KIR2DL5A /// KIR2DL5B /// KIR2DS1 /// KIR2DS2 /// KIR2DS3 /// KIR2DS4 /// KIR3DL3 /// KIR3DL3 /// KIR3DS1 (11738374_at) / RFU C1QL1 (11718748_at) / Fold change /veh C1QL1 (11718748_at) / RFU TMPRSS4 (11747572_a_at) / Fold change /veh TMPRSS4 (11747572_a_at) / RFU HAMP (11756126_x_at) / Fold change /veh HAMP (11756126_x_at) / RFU RNFT2 (11725882_a_at) / Fold change /veh RNFT2 (11725882_a_at) / RFU NR4A2 (11747474_a_at) / Fold change /veh NR4A2 (11747474_a_at) / RFU ABCC12 (11746883_a_at) / Fold change /veh ABCC12 (11746883_a_at) / RFU TMEM136 (11760407_x_at) / Fold change /veh TMEM136 (11760407_x_at) / RFU CLDN22 /// WWC2 (11732394_at) / Fold change /veh CLDN22 /// WWC2 (11732394_at) / RFU HLA-DPB1 (11760878_x_at) / Fold change /veh HLA-DPB1 (11760878_x_at) / RFU SPINT1 (11716480_a_at) / Fold change /veh SPINT1 (11716480_a_at) / RFU GAP43 (11754022_s_at) / Fold change /veh GAP43 (11754022_s_at) / RFU A4GNT (11735810_at) / Fold change /veh A4GNT (11735810_at) / RFU PRB3 (11715151_x_at) / Fold change /veh PRB3 (11715151_x_at) / RFU TUBB4B (11761932_at) / Fold change /veh TUBB4B (11761932_at) / RFU CAPN14 (11732068_a_at) / Fold change /veh CAPN14 (11732068_a_at) / RFU TMCC2 (11721928_a_at) / Fold change /veh TMCC2 (11721928_a_at) / RFU IRGQ (11745062_a_at) / Fold change /veh IRGQ (11745062_a_at) / RFU FAM174B (11720279_a_at) / Fold change /veh FAM174B (11720279_a_at) / RFU TMPRSS4 (11748680_a_at) / Fold change /veh TMPRSS4 (11748680_a_at) / RFU FAM212B (11763350_a_at) / Fold change /veh FAM212B (11763350_a_at) / RFU PLEKHG5 (11743358_a_at) / Fold change /veh PLEKHG5 (11743358_a_at) / RFU ZSCAN30 (11745921_a_at) / Fold change /veh ZSCAN30 (11745921_a_at) / RFU CMKLR1 (11741424_a_at) / Fold change /veh CMKLR1 (11741424_a_at) / RFU LOC101060620 /// MAPK8IP1 (11723275_at) / Fold change /veh LOC101060620 /// MAPK8IP1 (11723275_at) / RFU SPTSSB (11747773_x_at) / Fold change /veh SPTSSB (11747773_x_at) / RFU PRSS12 (11739890_at) / Fold change /veh PRSS12 (11739890_at) / RFU BIN1 (11741810_x_at) / Fold change /veh BIN1 (11741810_x_at) / RFU WNT11 (11732464_a_at) / Fold change /veh WNT11 (11732464_a_at) / RFU C10orf10 (11716521_a_at) / Fold change /veh C10orf10 (11716521_a_at) / RFU C5orf56 (11738089_at) / Fold change /veh C5orf56 (11738089_at) / RFU CYB561 (11721691_x_at) / Fold change /veh CYB561 (11721691_x_at) / RFU ANKRD19P (11752326_a_at) / Fold change /veh ANKRD19P (11752326_a_at) / RFU OR2T12 /// OR2T33 /// OR2T8 (11738714_s_at) / Fold change /veh OR2T12 /// OR2T33 /// OR2T8 (11738714_s_at) / RFU VCAN (11748164_a_at) / Fold change /veh VCAN (11748164_a_at) / RFU JSRP1 (11732532_at) / Fold change /veh JSRP1 (11732532_at) / RFU KRTAP10-11 (11738290_x_at) / Fold change /veh KRTAP10-11 (11738290_x_at) / RFU MYO3A (11730013_a_at) / Fold change /veh MYO3A (11730013_a_at) / RFU EBF3 (11725865_a_at) / Fold change /veh EBF3 (11725865_a_at) / RFU CAMK2N1 (11719241_x_at) / Fold change /veh CAMK2N1 (11719241_x_at) / RFU C5orf56 (11738088_a_at) / Fold change /veh C5orf56 (11738088_a_at) / RFU OLFML3 (11715873_a_at) / Fold change /veh OLFML3 (11715873_a_at) / RFU LOC100653217 /// NTM (11731650_a_at) / Fold change /veh LOC100653217 /// NTM (11731650_a_at) / RFU MAPK11 (11762145_a_at) / Fold change /veh MAPK11 (11762145_a_at) / RFU FIZ1 (11724087_x_at) / Fold change /veh FIZ1 (11724087_x_at) / RFU OASL (11726364_x_at) / Fold change /veh OASL (11726364_x_at) / RFU SOX15 (11748057_x_at) / Fold change /veh SOX15 (11748057_x_at) / RFU CD79A (11719716_a_at) / Fold change /veh CD79A (11719716_a_at) / RFU HIST1H1D (11736915_at) / Fold change /veh HIST1H1D (11736915_at) / RFU CASKIN2 (11723855_a_at) / Fold change /veh CASKIN2 (11723855_a_at) / RFU LOC730098 (11760151_x_at) / Fold change /veh LOC730098 (11760151_x_at) / RFU OR4N2 (11742367_at) / Fold change /veh OR4N2 (11742367_at) / RFU PRRT2 (11749266_a_at) / Fold change /veh PRRT2 (11749266_a_at) / RFU SNX32 (11753110_a_at) / Fold change /veh SNX32 (11753110_a_at) / RFU CDHR5 (11726645_a_at) / Fold change /veh CDHR5 (11726645_a_at) / RFU RCAN1 (11760418_a_at) / Fold change /veh RCAN1 (11760418_a_at) / RFU FAM167A (11723789_a_at) / Fold change /veh FAM167A (11723789_a_at) / RFU FAM26E (11764081_at) / Fold change /veh FAM26E (11764081_at) / RFU ISYNA1 (11749810_s_at) / Fold change /veh ISYNA1 (11749810_s_at) / RFU ACY1 (11761880_at) / Fold change /veh ACY1 (11761880_at) / RFU 11764098_at / Fold change /veh 11764098_at / RFU SAMD14 (11745864_x_at) / Fold change /veh SAMD14 (11745864_x_at) / RFU NPB (11741838_a_at) / Fold change /veh NPB (11741838_a_at) / RFU TMPRSS6 (11731388_a_at) / Fold change /veh TMPRSS6 (11731388_a_at) / RFU KRTAP10-2 (11738614_at) / Fold change /veh KRTAP10-2 (11738614_at) / RFU ARHGAP8 /// PRR5-ARHGAP8 (11727945_x_at) / Fold change /veh ARHGAP8 /// PRR5-ARHGAP8 (11727945_x_at) / RFU KRTAP5-7 /// NADSYN1 (11734609_at) / Fold change /veh KRTAP5-7 /// NADSYN1 (11734609_at) / RFU RASL12 (11751679_a_at) / Fold change /veh RASL12 (11751679_a_at) / RFU CDKN2B (11736163_a_at) / Fold change /veh CDKN2B (11736163_a_at) / RFU PRF1 (11729649_at) / Fold change /veh PRF1 (11729649_at) / RFU, ZNF638 /// ZNF638-IT1 / Fold change vs veh, ZNF638 /// ZNF638-IT1 / RFU, PANK3 / Fold change vs veh, PANK3 / RFU, SH3YL1 / Fold change vs veh, SH3YL1 / RFU, ZEB2 / Fold change vs veh, ZEB2 / RFU, NRIP1 / Fold change vs veh, NRIP1 / RFU, PTTG1IP / Fold change vs veh, PTTG1IP / RFU, CAPN2 / Fold change vs veh, CAPN2 / RFU, MED14 / Fold change vs veh, MED14 / RFU, SNORA58 / Fold change vs veh, SNORA58 / RFU, C1orf63 / Fold change vs veh, C1orf63 / RFU, LRRFIP1 / Fold change vs veh, LRRFIP1 / RFU, NDUFAF7 / Fold change vs veh, NDUFAF7 / RFU, SLC12A2 / Fold change vs veh, SLC12A2 / RFU, IBTK / Fold change vs veh, IBTK / RFU, ESF1 / Fold change vs veh, ESF1 / Fold change vs veh, TMEM50B / RFU, TAOK1 / Fold change vs veh, TAOK1 / RFU, ACBD3 / Fold change vs veh, ACBD3 / RFU, TMA16 / Fold change vs veh, TMA16 / RFU, RWDD3 / Fold change vs veh, RWDD3 / RFU, BCAT1 / Fold change vs veh, BCAT1 / RFU, EDEM3 / Fold change vs veh, EDEM3 / RFU, TMEM33 / Fold change vs veh, TMEM33 / RFU, WDR75 / Fold change vs veh, WDR75 / RFU, AHCTF1 / Fold change vs veh, AHCTF1 / RFU, TFRC / Fold change vs veh, TFRC / RFU, ZDHHC17 / Fold change vs veh, ZDHHC17 / RFU, NOM1 / Fold change vs veh, NOM1 / RFU, ARL8B / Fold change vs veh, ARL8B / RFU, ZBTB11 / Fold change vs veh, ZBTB11 / RFU, TAMM41 / Fold change vs veh, TAMM41 / RFU, KIAA1704 /// LOC100996395 / Fold change vs veh, KIAA1704 /// LOC100996395 / RFU, ING1 / Fold change vs veh, ING1 / RFU, TRMT61B / Fold change vs veh, TRMT61B / RFU, FUBP3 / Fold change vs veh, FUBP3 / RFU, TP53 / Fold change vs veh, TP53 / RFU, TNKS2 / Fold change vs veh, TNKS2 / RFU, ZFP14 / Fold change vs veh, ZFP14 / RFU, ACTR2 / Fold change vs veh, ACTR2 / RFU, PPP3R1 / Fold change vs veh, PPP3R1 / RFU, PIK3R1 / Fold change vs veh, PIK3R1 / RFU, HNRNPA1 / Fold change vs veh, HNRNPA1 / RFU, RNF170 / Fold change vs veh, RNF170 / RFU, ZNF28 / Fold change vs veh, ZNF28 / RFU, RNGTT / Fold change vs veh, RNGTT / RFU, OGT / Fold change vs veh, OGT / RFU, BRD1 / Fold change vs veh, BRD1 / RFU, MARS / Fold change vs veh, MARS / RFU, ZNF655 / Fold change vs veh, ZNF655 / RFU, FAHD1 / Fold change vs veh, FAHD1 / RFU, BDP1 / Fold change vs veh, BDP1 / RFU, LRRCC1 / Fold change vs veh, LRRCC1 / RFU, ARID1A / Fold change vs veh, ARID1A / RFU, ZNF146 / Fold change vs veh, ZNF146 / RFU, ZNF330 / Fold change vs veh, ZNF330 / RFU, GPN3 / Fold change vs veh, GPN3 / RFU, C9orf123 / Fold change vs veh, C9orf123 / RFU, N4BP2L2 / Fold change vs veh, N4BP2L2 / RFU, ARFIP1 / Fold change vs veh, ARFIP1 / RFU, FAM179B / Fold change vs veh, FAM179B / RFU, BCL10 / Fold change vs veh, BCL10 / RFU, UHRF1BP1L / Fold change vs veh, UHRF1BP1L / RFU, BET1 / Fold change vs veh, BET1 / RFU, CNOT2 / Fold change vs veh, CNOT2 / RFU, ZNF268 / Fold change vs veh, ZNF268 / Fold change vs veh, ZNF507 / RFU, DGCR2 / Fold change vs veh, DGCR2 / RFU, WDSUB1 / Fold change vs veh, WDSUB1 / Fold change vs veh, HSP90B1 /// MIR3652 / RFU, ADSS / Fold change vs veh, ADSS / RFU, GK / Fold change vs veh, GK / RFU, ZNF148 / Fold change vs veh, ZNF148 / RFU, TAF9 / Fold change vs veh, TAF9 / RFU, SLC1A5 / Fold change vs veh, SLC1A5 / RFU, SLMO2 / Fold change vs veh, SLMO2 / RFU, ABCC4 / Fold change vs veh, ABCC4 / RFU, LOC101060439 /// RAP1B / Fold change vs veh, LOC101060439 /// RAP1B / RFU, RFX7 / Fold change vs veh, RFX7 / RFU, GTPBP10 / Fold change vs veh, GTPBP10 / RFU, CNEP1R1 / Fold change vs veh, CNEP1R1 / RFU, BIVM-ERCC5 /// ERCC5 / Fold change vs veh, BIVM-ERCC5 /// ERCC5 / RFU, ILF3 / Fold change vs veh, ILF3 / RFU 11762660_at / Fold change /veh 11762660_at / RFU VCAN (11757783_s_at) / Fold change /veh VCAN (11757783_s_at) / RFU DDX43 (11728927_at) / Fold change /veh DDX43 (11728927_at) / RFU KRT8 (11758188_x_at) / Fold change /veh KRT8 (11758188_x_at) / RFU NKD1 (11759106_at) / Fold change /veh NKD1 (11759106_at) / RFU SRD5A1 (11742802_a_at) / Fold change /veh SRD5A1 (11742802_a_at) / RFU TPSAB1 /// TPSB2 (11721975_s_at) / Fold change /veh TPSAB1 /// TPSB2 (11721975_s_at) / RFU GSTM3 (11746129_a_at) / Fold change /veh GSTM3 (11746129_a_at) / RFU IL23R (11737362_x_at) / Fold change /veh IL23R (11737362_x_at) / RFU TMEM51 (11727254_a_at) / Fold change /veh TMEM51 (11727254_a_at) / RFU PIWIL2 (11732686_x_at) / Fold change /veh PIWIL2 (11732686_x_at) / RFU ORM1 (11744905_x_at) / Fold change /veh ORM1 (11744905_x_at) / RFU CCDC152 (11743942_at) / Fold change /veh CCDC152 (11743942_at) / RFU ECM1 (11717891_a_at) / Fold change /veh ECM1 (11717891_a_at) / RFU IL23R (11748794_a_at) / Fold change /veh IL23R (11748794_a_at) / RFU TNFAIP8L3 (11732012_x_at) / Fold change /veh TNFAIP8L3 (11732012_x_at) / RFU MBOAT4 (11741988_at) / Fold change /veh MBOAT4 (11741988_at) / RFU 11764193_at / Fold change /veh 11764193_at / RFU TMEM53 (11763286_at) / Fold change /veh TMEM53 (11763286_at) / RFU MAGEB2 (11727129_at) / Fold change /veh MAGEB2 (11727129_at) / RFU TMEM200A (11744735_a_at) / Fold change /veh TMEM200A (11744735_a_at) / RFU CCDC152 (11751479_a_at) / Fold change /veh CCDC152 (11751479_a_at) / RFU FAM211A (11726209_a_at) / Fold change /veh FAM211A (11726209_a_at) / RFU RGS16 (11746705_a_at) / Fold change /veh RGS16 (11746705_a_at) / RFU VCAN (11755009_s_at) / Fold change /veh VCAN (11755009_s_at) / RFU RHOB (11743442_s_at) / Fold change /veh RHOB (11743442_s_at) / RFU RGS16 (11720943_a_at) / Fold change /veh RGS16 (11720943_a_at) / RFU RGS16 (11720944_at) / Fold change /veh RGS16 (11720944_at) / RFU, VPS4B / Fold change vs veh, VPS4B / RFU, CREB1 / Fold change vs veh, CREB1 / RFU, DNAJC13 / Fold change vs veh, DNAJC13 / RFU, GNAQ / Fold change vs veh, GNAQ / RFU, CDK5R1 / Fold change vs veh, CDK5R1 / RFU, ZRANB3 / Fold change vs veh, ZRANB3 / RFU, CUL4A / Fold change vs veh, CUL4A / RFU, CCNY / Fold change vs veh, CCNY / RFU, UFL1 / Fold change vs veh, UFL1 / RFU, COG3 / Fold change vs veh, COG3 / RFU, DIAPH2 / Fold change vs veh, DIAPH2 / RFU, SKA2 / Fold change vs veh, SKA2 / RFU, AFF3 / Fold change vs veh, AFF3 / RFU, LMF1 / Fold change vs veh, LMF1 / RFU, IPO11 / Fold change vs veh, IPO11 / RFU, DFFB / Fold change vs veh, DFFB / RFU, FOXP1 / Fold change vs veh, FOXP1 / RFU, CARD8 / Fold change vs veh, CARD8 / RFU, STRN3 / Fold change vs veh, STRN3 / RFU, ADK / Fold change vs veh, ADK / RFU, RASSF2 / Fold change vs veh, RASSF2 / RFU, WIPF1 / Fold change vs veh, WIPF1 / RFU, LARP1B / Fold change vs veh, LARP1B / RFU, RASA1 / Fold change vs veh, RASA1 / RFU, RB1 / Fold change vs veh, RB1 / RFU, PPFIA1 / Fold change vs veh, PPFIA1 / RFU, MAT2A / Fold change vs veh, MAT2A / RFU, CCT5 / Fold change vs veh, CCT5 / RFU, WDR92 / Fold change vs veh, WDR92 / RFU, CUX1 / Fold change vs veh, CUX1 / RFU, TTC7A / Fold change vs veh, TTC7A / RFU, TMEM135 / Fold change vs veh, TMEM135 / RFU, DEPTOR / Fold change vs veh, DEPTOR / RFU, CPM / Fold change vs veh, CPM / RFU, DNAJB6 / Fold change vs veh, DNAJB6 / RFU, CACNA2D3 / Fold change vs veh, CACNA2D3 / RFU, DTX4 / Fold change vs veh, DTX4 / RFU, TFCP2 / Fold change vs veh, TFCP2 / RFU, GMCL1 /// GMCL1P1 / Fold change vs veh, GMCL1 /// GMCL1P1 / RFU, AEBP2 / Fold change vs veh, AEBP2 / RFU, SNHG1 /// SNORD22 /// SNORD25 /// SNORD26 /// SNORD27 /// SNORD28 /// SNORD29 /// SNORD31 / Fold change vs veh, SNHG1 /// SNORD22 /// SNORD25 /// SNORD26 /// SNORD27 /// SNORD28 /// SNORD29 /// SNORD31 / Fold change (Aza/veh), C12orf56 (ProbeSet 11735607_a_at) / Fold change (ACY-1035/veh), C12orf56 (ProbeSet 11735607_a_at) / Fold change (Aza/veh), FGFR1OP (ProbeSet 11751329_s_at) / Fold change (ACY-1035/veh), FGFR1OP (ProbeSet 11751329_s_at) / Fold change (Aza/veh), VPS36 (ProbeSet 11739960_a_at) / Fold change (ACY-1035/veh), VPS36 (ProbeSet 11739960_a_at) / RFU SYPL1 (11715823_x_at) / Fold change /veh SYPL1 (11715823_x_at) / RFU IGFBP7 (11715501_s_at) / Fold change /veh IGFBP7 (11715501_s_at) / RFU REEP3 (11722064_at) / Fold change /veh REEP3 (11722064_at) / RFU IGLL1 (11728026_x_at) / Fold change /veh IGLL1 (11728026_x_at): dose or concentration left out as unconfirmed. The following applies: MV-4-11 cells, 48 hours.

Take `Nc1ncn([C@@H]2O[C@H](CO)[C@@H](O)[C@H]2O)c(=O)n1` [azacitidine]: the “RFU ID3 (11757404_x_at)” value was 51.53 RFU.
